From patent US7671027B2, “Use of GnRH agonists to support the luteal phase during infertility treatment” (PregLem S.A., priority 2002, dated 2010)
Read-outs that look alike come from different tables or passages of the source. Square brackets hold non-standard residues; d marks the D form. pGlu = O=C1CC[C@@H](C(=O)O)N1

Legend:
[1] = test system: patients (hypothalamic amenorrhea); details: nasal administration every 4 hours after IV GnRH induction of ovulation; in half of the patients; cited from earlier work
[2] = test system: patients suffering from unexplained infertility, mild to moderate endometrioisis or partner sperm alteration; assay: Dose finding study: luteal phase duration and pregnancy outcome after ovarian stimulation and IUI; type: in vivo; details: for Positive pregnancy test: patients positive/total, day 14 of luteal phase; for Clinical pregnancy: patients/total
Excerpt: (§1) Patients suffering from unexplained infertility, or from infertility resulting from mild to moderate endometrioisis, or an infertility resulting from a mild or moderate alteration of their partner sperm, and whom have not conceived despite regular sexual intercourses during a period of one or two years, usually undergo medical assistance. The most often used treatment is ovarian stimulation coupled to an IUI (Hughes G. H. 1997, The effectiveness of ovulation induction and intra-uterine insemination in the treatment of persistent infertility: a meta-analysis. Hum Reprod. 12: 1865-1872).
(§2) A prospective, randomised, parallel groups dose finding study was conducted in this patient population.
(§3) The number and the size of each follicle was recorded.
(§4) Between 12 and 48 hours after triggering ovulation, the patient's partner provided a sperm sample, after 2 to 5 days of abstinence. Motile sperm cells were separated from seminal fluid, dead sperm cells, leucocytes, and cellular debris using a suitable method such as a “swim-up” or a Percol gradient. On that same day, the motile sperm cell suspension was used to perform an intra-uterine insemination with a catheter inserted into the uterine cavity via the cervix. The procedure may be repeated on the next day.

[3] = test system: patients who did not conceive; assay: Dose finding study: luteal phase serum progesterone levels; type: in vivo, human
Excerpt: as §1, §2, §3, §4

[4] = test system: patients who did not conceive; assay: Dose finding study: luteal phase serum oestradiol levels; type: in vivo, human
Excerpt: as §1, §2, §3, §4

[5] = test system: patients in ART treatments; details: cited from earlier work
[6] = Day 0, buserelin 100 μg/2 days IN
[7] = Day 0, buserelin 100 μg/3 days IN
[8] = Day 1, buserelin 100 μg/2 days IN
[9] = Day 1, buserelin 100 μg/3 days IN
[10] = Day 4, buserelin 100 μg/2 days IN
[11] = Day 4, buserelin 100 μg/3 days IN
[12] = Day 7, buserelin 100 μg/2 days IN
[13] = Day 7, buserelin 100 μg/3 days IN
[14] = Day 9, buserelin 100 μg/2 days IN
[15] = Day 9, buserelin 100 μg/3 days IN
[16] = Day 11, buserelin 100 μg/2 days IN
[17] = Day 11, buserelin 100 μg/3 days IN
[18] = Day 11, buserelin 100 μg/day IN
[19] = Day 14, buserelin 100 μg/2 days IN
[20] = Day 14, buserelin 100 μg/3 days IN
[21] = Day 14, buserelin 100 μg/day IN

Compound: <Glu^1-His^2-Trp^3-Ser^4-Tyr^5-His^6-Leu^7-Arg^8-Pro^9-Gly^10-NH2 (SEQ ID NO: 1) ([pGlu]HWSYHLRPG-NH2; SMILES CC(C)C[C@H](NC(=O)[C@H](Cc1c[nH]cn1)NC(=O)[C@H](Cc1ccc(O)cc1)NC(=O)[C@H](CO)NC(=O)[C@H](Cc1c[nH]c2ccccc12)NC(=O)[C@H](Cc1c[nH]cn1)NC(=O)[C@@H]1CCC(=O)N1)C(=O)N[C@@H](CCCNC(=N)N)C(=O)N1CCC[C@H]1C(=O)NCC(N)=O; listed as Homo sapiens) [native GnRH, synthetic, native GnRH decapeptide]
- support of the luteal phase [1]: completely ineffective

Compound: CCNC(=O)[C@@H]1CCCN1C(=O)[C@H](CCCNC(=N)N)NC(=O)[C@H](CC(C)C)NC(=O)[C@@H](COC(C)(C)C)NC(=O)[C@H](Cc1ccc(O)cc1)NC(=O)[C@H](CO)NC(=O)[C@H](Cc1c[nH]c2ccccc12)NC(=O)[C@H](Cc1cnc[nH]1)NC(=O)[C@@H]1CCC(=O)N1 [Buserelin, <Glu^1-His^2-Trp^3-Ser^4-Tyr^5-D-Ser(t-But)^6-Leu^7-Arg^8-Pro^9-EA (SEQ ID NO: 2)]
- luteal support, summary of tables 1-3 ([2]; buserelin 100 μg IN once a day for 14 days, compared with the other groups): a longer luteal phase, higher progesterone and oestradiol levels in late luteal phase and a trend toward a higher clinical pregnancy rate
- Positive pregnancy test ([2]; buserelin 100 μg/2 days IN): 2/6
- Clinical pregnancy ([2]; buserelin 100 μg/2 days IN): 1/6
- Positive pregnancy test ([2]; buserelin 100 μg/3 days IN): 1/5
- Clinical pregnancy ([2]; buserelin 100 μg/3 days IN): 0/5
- Positive pregnancy test ([2]; buserelin 100 μg/day IN): 2/6
- Clinical pregnancy ([2]; buserelin 100 μg/day IN): 2/6
- Luteal phase duration (mean ± SD) ([2]; buserelin 200 μg IN trigger, then 100 μg/day IN for 14 days, n=6): 15.3 ± 0.5 days
- adverse local reactions of intra-nasal administration ([2]; self-administered intra-nasal buserelin 100 μg): did not carry the risk of adverse local reactions such as pain and abces
- Luteal phase serum progesterone level (mean ± SD) [3, 6]: 0.9 ± 0.7 ng/mL
- Luteal phase serum progesterone level (mean ± SD) [3, 7]: 0.7 ± 0.3 ng/mL
- Luteal phase serum progesterone level (mean ± SD) ([3]; Day 0, buserelin 100 μg/day IN): 1.1 ± 0.4 ng/mL
- Luteal phase serum progesterone level (mean ± SD) [3, 8]: 1.3 ± 0.8 ng/mL
- Luteal phase serum progesterone level (mean ± SD) [3, 9]: 0.9 ± 0.2 ng/mL
- Luteal phase serum progesterone level (mean ± SD) ([3]; Day 1, buserelin 100 μg/day IN): 1.2 ± 0.3 ng/mL
- Luteal phase serum progesterone level (mean ± SD) [3, 10]: 7.6 ± 3.2 ng/mL
- Luteal phase serum progesterone level (mean ± SD) [3, 11]: 5.1 ± 2.0 ng/mL
- Luteal phase serum progesterone level (mean ± SD) ([3]; Day 4, buserelin 100 μg/day IN): 6.2 ± 2.3 ng/mL
- Luteal phase serum progesterone level (mean ± SD) [3, 12]: 11.7 ± 4.6 ng/mL
- Luteal phase serum progesterone level (mean ± SD) [3, 13]: 11.5 ± 3.6 ng/mL
- Luteal phase serum progesterone level (mean ± SD) ([3]; Day 7, buserelin 100 μg/day IN): 13.9 ± 2.9 ng/mL
- Luteal phase serum progesterone level (mean ± SD) [3, 14]: 8.2 ± 6.4 ng/mL
- Luteal phase serum progesterone level (mean ± SD) [3, 15]: 10.8 ± 6.6 ng/mL
- Luteal phase serum progesterone level (mean ± SD) ([3]; Day 9, buserelin 100 μg/day IN): 16.2 ± 7.5 ng/mL
- Luteal phase serum progesterone level (mean ± SD) [3, 16]: 8.3 ± 6.5 ng/mL
- Luteal phase serum progesterone level (mean ± SD) [3, 17]: 10.0 ± 3.7 ng/mL
- Luteal phase serum progesterone level (mean ± SD) [3, 18]: 14.1 ± 3.3 ng/mL
- Luteal phase serum progesterone level (mean ± SD) [3, 19]: 5.8 ± 4.7 ng/mL
- Luteal phase serum progesterone level (mean ± SD) [3, 20]: 3.3 ± 2.4 ng/mL
- Luteal phase serum progesterone level (mean ± SD) [3, 21]: 8.4 ± 4.3 ng/mL
- Luteal phase serum oestradiol level (mean ± SD) [4, 6]: 247 ± 79 pg/mL
- Luteal phase serum oestradiol level (mean ± SD) [4, 7]: 182 ± 76 pg/mL
- Luteal phase serum oestradiol level (mean ± SD) ([4]; Day 0, buserelin 100 μg/day IN): 175 ± 071 pg/mL
- Luteal phase serum oestradiol level (mean ± SD) [4, 8]: 164 ± 75 pg/mL
- Luteal phase serum oestradiol level (mean ± SD) [4, 9]: 325 ± 160 pg/mL
- Luteal phase serum oestradiol level (mean ± SD) [4, 10]: 139 ± 77 pg/mL
- Luteal phase serum oestradiol level (mean ± SD) [4, 11]: 106 ± 61 pg/mL
- Luteal phase serum oestradiol level (mean ± SD) ([4]; Day 4, buserelin 100 μg/day IN): 179 ± 101 pg/mL
- Luteal phase serum oestradiol level (mean ± SD) [4, 12]: 70 ± 19 pg/mL
- Luteal phase serum oestradiol level (mean ± SD) [4, 13]: 144 ± 118 pg/mL
- Luteal phase serum oestradiol level (mean ± SD) ([4]; Day 7, buserelin 100 μg/day IN): 163 ± 30 pg/mL
- Luteal phase serum oestradiol level (mean ± SD) [4, 14]: 65 ± 15 pg/mL
- Luteal phase serum oestradiol level (mean ± SD) [4, 15]: 109 ± 88 pg/mL
- Luteal phase serum oestradiol level (mean ± SD) ([4]; Day 9, buserelin 100 μg/day IN): 232 ± 77 pg/mL
- Luteal phase serum oestradiol level (mean ± SD) [4, 16]: 75 ± 4 pg/mL
- Luteal phase serum oestradiol level (mean ± SD) [4, 17]: 123 ± 61 pg/mL
- Luteal phase serum oestradiol level (mean ± SD) [4, 18]: 200 ± 30 pg/mL
- Luteal phase serum oestradiol level (mean ± SD) [4, 19]: 124 ± 68 pg/mL
- Luteal phase serum oestradiol level (mean ± SD) [4, 20]: 82 ± 31 pg/mL
- Luteal phase serum oestradiol level (mean ± SD) [4, 21]: 154 ± 85 pg/mL

Compound: CC(=O)[C@H]1CC[C@H]2[C@@H]3CCC4=CC(=O)CC[C@]4(C)[C@H]3CC[C@]12C [progesterone]
- relative efficacy of IM progesterone vs vaginal progesterone ([5]; C.I. of 1.02-1.75, in favor of the IM route (p<0.05)): 1.33
- odds to obtain a pregnancy compared to no luteal support ([5]; progesterone IM, CI: 1.36-4.27, p<0.05): 2.38
- odds to obtain a pregnancy compared to no luteal support ([5]; vaginal route, C.I. of 0.95-4.67 (NS)): 2.11
